From paper PMC9503024, “Structure and Biological Properties of Ribosome-Inactivating Proteins and Lectins from Elder (Sambucus nigra L.) Leaves” (Toxins, 2022) come the findings set out here.

Settings in all cases: human erythrocytes; room temperature, 1 h; serial dilutions
Assay [1] has as its target SNAld (Sambucus nigra, UniProt Q8GTA6).
Assay [2] concerns the target nigrin l (Sambucus nigra, UniProt Q8GT32).
The target of assay [3] is SNAlm (Sambucus nigra, UniProt Q8GTA5).
Chain of SNAlm (Q8GTA5 57-316 limits assumed): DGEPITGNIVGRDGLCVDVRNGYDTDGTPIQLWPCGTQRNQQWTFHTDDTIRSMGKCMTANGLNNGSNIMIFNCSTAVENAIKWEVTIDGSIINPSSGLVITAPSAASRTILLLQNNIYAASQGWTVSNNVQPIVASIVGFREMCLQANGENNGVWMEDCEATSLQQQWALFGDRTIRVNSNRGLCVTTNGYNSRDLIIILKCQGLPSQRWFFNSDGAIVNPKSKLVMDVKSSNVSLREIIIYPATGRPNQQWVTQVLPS

Chain of nigrin l (Q8GT32 26-282 limits assumed): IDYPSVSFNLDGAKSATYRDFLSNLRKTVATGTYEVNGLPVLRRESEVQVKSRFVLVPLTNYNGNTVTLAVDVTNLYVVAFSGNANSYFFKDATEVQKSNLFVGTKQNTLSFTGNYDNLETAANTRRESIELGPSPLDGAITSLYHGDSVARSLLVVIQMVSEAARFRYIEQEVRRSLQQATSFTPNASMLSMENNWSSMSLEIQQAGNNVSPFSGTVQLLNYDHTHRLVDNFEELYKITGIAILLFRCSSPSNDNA
Chain of nigrin l (Q8GT32 298-563 limits assumed): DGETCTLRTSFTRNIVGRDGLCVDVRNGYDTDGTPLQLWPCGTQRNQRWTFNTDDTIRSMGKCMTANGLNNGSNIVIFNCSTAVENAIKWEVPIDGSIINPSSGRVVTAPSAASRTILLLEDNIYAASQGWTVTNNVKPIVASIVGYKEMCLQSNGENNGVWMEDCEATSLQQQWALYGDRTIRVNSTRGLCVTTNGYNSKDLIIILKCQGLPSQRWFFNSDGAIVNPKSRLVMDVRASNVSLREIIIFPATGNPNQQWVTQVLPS
Chain of SNAld (Q8GTA6 entry or part of it): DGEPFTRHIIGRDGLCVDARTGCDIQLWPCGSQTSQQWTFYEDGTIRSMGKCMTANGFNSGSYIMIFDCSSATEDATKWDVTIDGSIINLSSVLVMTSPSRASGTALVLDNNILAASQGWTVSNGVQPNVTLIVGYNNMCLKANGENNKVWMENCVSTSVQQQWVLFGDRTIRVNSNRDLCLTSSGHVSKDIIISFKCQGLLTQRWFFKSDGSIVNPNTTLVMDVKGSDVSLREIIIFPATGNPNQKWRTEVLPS

Molecule `OC[C@H]1OC(O)[C@H](O)[C@@H](O)[C@H]1O` (stereo partly drawn) [D-galactose] registered an SNAld in assay [1] of 100 mM. The molecule also showed a Nigrin l in assay [2] of 50 mM. Further, the SNAlm in assay [3] amounted to 6.25 mM.
On the same counts, the results for `OC[C@H]1O[C@@H](O[C@H]2[C@H](O)[C@@H](O)C(O)O[C@@H]2CO)[C@H](O)[C@@H](O)[C@H]1O` (stereo partly drawn) [Lactose, β-D-galactopyranosyl-(1→4)-D-glucose] are 25 mM, 12.5 mM and 1.56 mM.
